Results on 13 compounds are retold here after US20240092774A1, “HETEROAROMATIC COMPOUNDS AND USES THEREOF” (HUTCHISON MEDIPHARMA LIMITED, priority 2020, published 2024).

In test [1] the target is Recombinant human CSF1R kinase (Homo sapiens (Human), UniProt P07333). The experiment in a line: Measurement of CSF1R kinase activity at molecular level (Z-LYTE). Particulars: Z-LYTE Tyr 1 peptide. The format is biochemical. The method, then:
Invitrogen, PV3227; • Development reagent B: Invitrogen, PV3295; • Development buffer: Invitrogen. P3127; • Stopping solution: Invitrogen, P3094; • Recombinant human CSF1R kinase: Invitrogen, P[…]; • 384 well plate, black: Corning. 3575; • Envision: Perkin Elmer. 2. […] The test compound was diluted in gradient to 4-fold the reaction concentration and the concentration of DMSO was kept at 8%. […] The mixture was mixed gently with a pipette. • 4) A phosphorylated peptide substrate solution (PP solution): 0.4 μL of Z-LYTETM Tyr1 phosphorylated peptide substrate was added to 99.6 μl of 1.33× kinase buffer. • 5) ATP solution: 10 mM of ATP was diluted to 760 μM with 1.33× kinase buffer to prepare ATP solution. • 6) Development solution: Development reagent B was diluted with Development buffer at a ratio of 1:200. 3. […] 2.5 μL of 4× test compound was added to each reaction well of the 384 plate, and the corresponding volume of 8% DMSO was added to the control well. The plate was placed on ice. […] After adding the reaction components, the 384-well plate was sealed and incubated at 25-30° C. for 1 h in dark. 2) Development Reaction 5 μL of Development solution was added to each well, sealed and incubated at 25-30° C. for another 1 h in dark. 3) Reaction Stopping and Plate Reading 5 μL of stopping solution was added to each well. The Coumarin value (excitation at 400 nm, emission at 445 nm) and Fluorescein value (excitation at 400 nm, emission at 520 nm) were measured, respectively. 4. […] Coumarin emission read-out (445 nm)/Fluorescein emission read-out (520 nm); • C3 445 nm: 100% phosphorylated Coumarin emission read-out; • C3 520 nm: 100% phosphorylated Fluorescein emission read-out; • C1 445 nm: 0% phosphorylated Coumarin emission read-out; • C1 520 nm: 0% phosphorylated Fluorescein emission read-out. […] 5. IC50 values: calculated by using software XL-FitTM (version 5.3) supplied by ID Business Solutions (Guildford, UK), which is an additional software to Microsoft Excel.

For test [2], the target named is CSF1R phosphorylation in THP-1 cells (Homo sapiens (Human), UniProt P07333). The experiment in a line: Detection of CSF1R phosphorylation activity at cell level (p-CSF1R ELISA, M-CSF stimulated THP-1 cells). The format is cell-based. Particulars: THP-1 cells, M-CSF stimulation, p-CSF1R ELISA; read-out: IC50. The method, then: THP-1 (ATCC), human acute monocytic leukemia cells.
3. Treatment of cells and preparation of lysis buffer
5 μL. of the diluted compound was added to the 50 μL cell culture system, the culture was cultured in a 5% CO2, 37° C. cell incubator for 60 min, 300 ng/mL of M-CSF was added to the cells, and the mixture was stimulated in the 37° C. cell incubator for 1 min, added 50 μL of cell lysis buffer, and stored in a refrigerator at −80° C.
100 μL/well of the p-CSF1R capture antibody diluted to 0.8 μg/mL with PBS was added to the ELISA plate, and the plate was coated on a shaker at room temperature overnight. The culture was washed with PBST, and then added blocking solution and incubated at room temperature for 2 h. The culture was washed with PBST, added 90 μL of cell lysis buffer, and incubated on a shaker at 25° C. for 2 h. The plate was washed with PBST three times, added 100 μL of anti-p-tyrosine-HRP detection antibody diluted with 0.1% PBS-BSA diluent, and incubated on a shaker at 25° C. for 2 h. The plate was washed with PBST washing liquid, added 100 μL of chromogenic substrate and incubated at room temperature for 10-20 min. The reaction was stopped by adding 50 μL of 2N H2SO4. The optical density signal (450/570 nm) of each well was detected in Labsystems Multiskan K3 or Envision.
wherein • Drug-treated well read-out: indicating the optical density signal of a cell well with the test compound treatment. • Background read-out: indicating the optical density signal of a well without cells but with cell lysis buffer. • Cell well read-out: indicating the optical density signal of a cell well not treated with the compound.
6. Calculation of IC50: obtained by using XL-Fit 5.3 software, […]
For orientation: In an ELISA, binding on a coated surface is turned into a signal by an enzyme label.

CSF1R phosphorylation in THP-1 cells, sequence (P07333 20-972): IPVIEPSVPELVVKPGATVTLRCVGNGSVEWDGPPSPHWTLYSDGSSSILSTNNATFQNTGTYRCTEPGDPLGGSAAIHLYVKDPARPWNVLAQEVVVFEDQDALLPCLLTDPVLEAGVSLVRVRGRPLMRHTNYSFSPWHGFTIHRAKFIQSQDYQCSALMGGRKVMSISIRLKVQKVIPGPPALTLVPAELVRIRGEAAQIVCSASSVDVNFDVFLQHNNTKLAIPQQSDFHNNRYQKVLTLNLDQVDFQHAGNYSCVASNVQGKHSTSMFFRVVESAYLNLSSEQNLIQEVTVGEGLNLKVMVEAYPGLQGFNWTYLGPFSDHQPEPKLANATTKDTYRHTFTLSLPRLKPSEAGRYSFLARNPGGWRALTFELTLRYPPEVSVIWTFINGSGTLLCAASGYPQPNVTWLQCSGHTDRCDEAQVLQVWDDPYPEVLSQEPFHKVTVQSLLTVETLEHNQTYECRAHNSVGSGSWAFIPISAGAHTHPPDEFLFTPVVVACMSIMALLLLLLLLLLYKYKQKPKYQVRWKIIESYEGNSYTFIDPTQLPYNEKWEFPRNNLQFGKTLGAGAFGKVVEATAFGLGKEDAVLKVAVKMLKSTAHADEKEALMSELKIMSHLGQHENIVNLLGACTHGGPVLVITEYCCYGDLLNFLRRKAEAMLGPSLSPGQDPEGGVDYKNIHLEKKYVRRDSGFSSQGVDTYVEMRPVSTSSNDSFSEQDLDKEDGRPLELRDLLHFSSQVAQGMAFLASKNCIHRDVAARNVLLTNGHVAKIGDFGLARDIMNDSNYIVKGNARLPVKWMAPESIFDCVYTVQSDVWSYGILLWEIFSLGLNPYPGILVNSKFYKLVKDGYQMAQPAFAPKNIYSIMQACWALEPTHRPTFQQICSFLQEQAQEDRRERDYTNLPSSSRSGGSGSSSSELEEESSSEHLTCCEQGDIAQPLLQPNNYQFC
Recombinant human CSF1R kinase, sequence (P07333 20-972): as above

One may read the IC50 as the concentration that inhibits the measured activity by half. In the case of `Cn1cc(-c2cc(Oc3cnc4c(c3)OC[C@H](c3ccc(C5CC5)cn3)O4)ccn2)cn1` [Compound 73], the values for the IC50 in test [1] and in test [2] were 6 nM and 17 nM, respectively.
On the same counts, the results for `Cn1cc(-c2cc(Oc3cnc4c(c3)OC[C@@H](c3ccc(C5CC5)cn3)O4)ccn2)cn1` [Compound 74] are 5 nM and 9 nM.
As to `Cc1cnc2ccc(Oc3cnc4c(c3)OC[C@H](c3ccc(C5CC5)cn3)O4)cn2c1=O` [Compound 75], the IC50 amounted to 15 nM in test [1] and 117 nM in test [2].
Turning to `Cc1cnc2ccc(Oc3cnc4c(c3)OC[C@@H](c3ccc(C5CC5)cn3)O4)cn2c1=O` [Compound 76], the IC50 was determined as 8 nM in test [1] and 18 nM in test [2].
As for `COc1ccc([C@@H]2COc3cc(Oc4ccc5nccc(=O)n5c4)cnc3O2)nc1` [Compound 78], the IC50 in test [1] was 26 nM; in test [2], 64 nM.
On the same counts, the results for `COc1ccc([C@H]2COc3cc(Oc4ccc5ncc(C)c(=O)n5c4)cnc3O2)nc1` [Compound 79] are 30 nM and 182 nM.
With `COc1ccc([C@@H]2COc3cc(Oc4ccc5ncc(C)c(=O)n5c4)cnc3O2)nc1` [Compound 80], the IC50 in test [1] is 13 nM; in test [2] it was 22 nM.
On to `COc1ccc([C@H]2COc3cc(Oc4ccnc(-c5cnn(C)c5)c4)cnc3O2)nc1` [Compound 81], for which the IC50 in test [1] was 10 nM; in test [2] it was 32 nM.
On the same counts, the results for `COc1ccc([C@@H]2COc3cc(Oc4ccnc(-c5cnn(C)c5)c4)cnc3O2)nc1` [Compound 82] are 11 nM and 13 nM.
With `COc1ccc([C@H]2COc3cc(Oc4ccc5nccc(=O)n5c4)cnc3O2)cn1` [Compound 83, (S)-7-((3-(6-methoxypyridin-3-yl)-2,3-dihydro-[1,4]dioxino[2,3-b]pyridin-7-yl)oxy)-4H-pyrido[1,2-a]pyrimidin-4-one], the IC50 in test [1] was determined as 7 nM; in test [2] it was 138 nM.
`COc1ccc([C@H]2COc3cc(Oc4ccc5ncc(C)c(=O)n5c4)cnc3O2)cn1` [Compound 84]: the IC50 in test [1] stood at 8 nM; in test [2], 84 nM.
For `COc1ccc([C@@H]2COc3cc(Oc4ccc5nccc(=O)n5c4)cnc3O2)cn1` [Compound 85], in that order: 17 nM and 154 nM.
Consider `COc1ccc([C@@H]2COc3cc(Oc4ccc5ncc(C)c(=O)n5c4)cnc3O2)cn1` [Compound 86], for which the IC50 in test [1] amounted to 8 nM; in test [2], 56 nM.
